A short description of the data set: solubility of the active ingredient according to pH (FIG. 1). In kind it is physicochemical. As to conditions: at acid pHs; increases as pH rises (FIG. 1). The text has this: The main aim of the invention was to obtain an oral form in which the rate of release of the active ingredient is controlled and reproducible. In fact, in the current form the dissolution of the active ingredient varies greatly according to pH. This characteristic, associated with gliclazide itself, poses absorption problems for the active ingredient. The solubility is very weak at acid pHs and increases as pH rises.
FIG. 1 represents the phenomenon of the solubility of the active ingredient varying according to pH.

`Cc1ccc(S(=O)(=O)NC(=O)NN2CC3CCCC3C2)cc1` (stereo not shown) [gliclazide, Gliclazide]: the “solubility of the active ingredient” value is given as “very weak”.

These data come from patent publication US6733782B1, “Core tablet for controlled release of gliclazide after oral administration” (Les Laboratories Servier, priority 1999, dated 2004).
